Target: T1, Carboxypeptidase O (CPO) (Homo sapiens, UniProt Q8IVL8, W297L)
T1 construct: full-length GPI-anchored enzyme without prodomain, (plasmid pcDNA-CPO in HEK293T); Triton X-100 cell lysate
T1 sequence (Q8IVL8 21-352 W297L): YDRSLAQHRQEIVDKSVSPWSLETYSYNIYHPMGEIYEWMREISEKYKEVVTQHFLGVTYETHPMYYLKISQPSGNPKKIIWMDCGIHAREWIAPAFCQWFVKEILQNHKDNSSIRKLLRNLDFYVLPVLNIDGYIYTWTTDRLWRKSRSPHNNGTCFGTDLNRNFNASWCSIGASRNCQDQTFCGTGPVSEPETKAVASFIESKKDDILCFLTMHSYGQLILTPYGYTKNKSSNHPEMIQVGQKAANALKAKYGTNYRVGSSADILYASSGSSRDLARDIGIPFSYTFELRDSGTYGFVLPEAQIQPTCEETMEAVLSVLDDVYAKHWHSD
Test: absorbance decrease at […] nm after […] min
Type: biochemical
Conditions: lysate of transfected HEK293T cells; 0.5 mM FA-EE, 37°C; inactive mutant

Question: `O=C(O)CC[C@H](NC(=O)[C@H](CCC(=O)O)NC(=O)C=Cc1ccco1)C(=O)O` [FA-Glu-Glu] was tested. Which no enzymatic activity did it give?
Answer: The W297L CPO mutant exhibits no enzymatic activity, although fully expressed

From article PMC6214572, “Carboxypeptidase O is a lipid droplet-associated enzyme able to cleave both acidic and polar C-terminal amino acids” (PLoS ONE, 2018)
